The record followed here is ChEMBL document CHEMBL2176943, “Discovery of inhibitors to block interactions of HIV-1 integrase with human LEDGF/p75 via structure-based virtual screening and bioassays” (J Med Chem, 2012).

Structures are written as SMILES. Activity calls are given as the source filed them. The rule behind the calls is not given here.

Data set [1] deals with Human immunodeficiency virus type 1 integrase (Human immunodeficiency virus 1, UniProt Q7ZJM1). As to the kind of experiment: Inhibition of HIV1 His6-tagged integrase-human GST tagged LEDGF/p75 (373-442 residues) interaction after 30 mins by AlphaScreen assay. (Bead proximity is the source of the signal in Alpha formats.)
Data set [2] can be described thus: Therapeutic index, ratio of CC50 for human C8166 cells to EC50 for HIV-1 3B infected in C8166 cells. It is filed as cell-based. The conditions noted are these: read-out: Ratio CC50/EC50.
The target in data set [3] is Human immunodeficiency virus type 1 integrase (Human immunodeficiency virus 1) (UniProt Q7ZJM1). As to the kind of experiment: Inhibition of nuclear translocation of HIV1 EGFP-labeled integrase expressed in human 293T cells at 36.40 uM after 24 hrs by microscopic analysis. It is filed as cell-based.
A short description of data set [4]: Cytotoxicity against human C8166 cells after 3 days by MTT assay. It is filed as cell-based.
In data set [5] the test system is Human immunodeficiency virus 1. As to the kind of experiment: Antiviral activity against HIV-1 3B infected in C8166 cells assessed as virus-induced cytopathic effect measuring […] formation after 3 days by microscopy. The conditions noted are these: Human immunodeficiency virus 1, 3B, C8166, 72 h. The data set is classed as functional, organism-based. On the technique in general: Damage to the host cells serves as the signal in cytopathic effect assays.

Data set [6] has as its target Human immunodeficiency virus type 1 integrase (Human immunodeficiency virus 1) (UniProt Q7ZJM1). As to the kind of experiment: Inhibition of nuclear translocation of HIV1 EGFP-labeled integrase expressed in human 293T cells at 83.83 uM after 24 hrs by microscopic analysis. It is filed as cell-based.
Data set [7] shares this target. As to the kind of experiment: Inhibition of nuclear translocation of HIV1 EGFP-labeled integrase expressed in human 293T cells at 86.73 uM after 24 hrs by microscopic analysis. The data set is classed as cell-based.
The target is the same in data set [8]. As to the kind of experiment: Inhibition of nuclear translocation of HIV1 EGFP-labeled integrase expressed in human 293T cells at 36 uM after 24 hrs by microscopic analysis. The data set is classed as cell-based.

Broadly, the IC50 is the concentration that gives 50% inhibition. The low end stands for inhibition by little substance, the high end for a need for much substance. What is called CC50 is the concentration that lowers cell viability or growth by half. A lower CC50 goes with harm at low concentration. The EC50 is the concentration at which the effect is half-maximal.

For `COc1cc(CC(NC(=O)CCCC[C@]23CCC(C)(C)C[C@H]2C2=CC[C@@H]4[C@@]5(C)CC[C@H](O)C(C)(C)[C@@H]5CC[C@@]4(C)[C@]2(C)CC3)C(=O)O)cc(OC)c1` (mixture of isomers), in data set [1], the half-inhibitory concentration (IC50) is 1260 nM. This lies in the single-digit micromolar range.

The compound `O=C(/C=C/c1ccccc1O)c1cccc(O)c1O` yielded a half-inhibitory concentration (IC50) in data set [1] of 1610 nM.

Regarding `O=C(NCc1cccc([N+](=O)[O-])c1)c1ccc(OCc2ccccc2)cc1O`, 3840 nM corresponded to half-maximal inhibition in data set [1] (IC50).

For the compound `O=C(/C=C/c1ccccc1Cl)c1ccc(O)cc1O`, the selectivity ratio in data set [2] turned out to be 4.88. Further, in data set [3], the inhibition entry was “Active”. For the same compound, it took 8830 nM to reach half-maximal cytotoxicity in data set [4] (CC50 at 72 h). Moreover, the EC50 in data set [5] is 1810 nM. This compound also showed an IC50 in data set [1] of 320 nM.

In data set [1], `O=C(/C=C/c1cc(O)ccc1O)c1ccc(O)cc1O` gave an IC50 of 3780 nM. This counts as single-digit micromolar.

In data set [1], `COc1cccc(CC(NC(=O)CCCC[C@]23CCC(C)(C)C[C@H]2C2=CC[C@@H]4[C@@]5(C)CC[C@H](O)C(C)(C)[C@@H]5CC[C@@]4(C)[C@]2(C)CC3)C(=O)O)c1OC` (mixture of isomers) showed an IC50 of 3220 nM. This IC50 and that of the compound before are within 1.5-fold of each other.

In turn, `O=C(/C=C/c1cccc(O)c1O)c1ccc(O)cc1O` [2,3,2',4'-TETRAHYDROXYCHALCONE] showed a 50% inhibitory concentration (IC50) in data set [1] of 1700 nM. Against the preceding compound, the IC50 is about 1.9-fold lower.

`CC1(C)CC[C@]2(C(=O)O)CC[C@]3(C)C(=CC[C@@H]4[C@@]5(C)CC[C@H](OC(=O)C(=O)O)C(C)(C)[C@@H]5CC[C@]43C)[C@@H]2C1` returned an IC50 in data set [1] of 9940 nM.

In the case of `CCOc1cc(/C=C2\SC(=O)N(CC(=O)c3ccccc3)C2=O)c(Br)cc1OCc1ccc(C(=O)O)cc1`, the inhibition entry in data set [6] was “Active”.

`CC1(C)CC[C@]2(C(=O)O)CC[C@]3(C)C(=CC[C@@H]4[C@@]5(C)CC[C@H](OC(=O)CC(C)(C)C(=O)O)C(C)(C)[C@@H]5CC[C@]43C)[C@@H]2C1`: the IC50 in data set [1] is 5510 nM.

For `O=C(/C=C/c1cccc(O)c1O)c1c(O)cc(O)cc1O`, in data set [2], the selectivity ratio came out at 3.76. In addition, the inhibition result in data set [7] is “Active”. For the same compound, the CC50 at 72 h in data set [4] is 111000 nM. Besides, in data set [5], the EC50 was 29600 nM. For the same compound, the half-maximal inhibitory concentration (IC50) in data set [1] is 260 nM.

With `CC1(C)CC[C@]2(C(=O)O)CC[C@]3(C)C(=CC[C@@H]4[C@@]5(C)CC[C@H](OCc6cccc(C(=O)O)c6)C(C)(C)[C@@H]5CC[C@]43C)[C@@H]2C1`, the IC50 in data set [1] worked out at 1140 nM.

Take `Cc1cn([C@H]2C[C@H](N=[N+]=[N-])[C@@H](CO)O2)c(=O)[nH]c1=O` [ZIDOVUDINE]: the selectivity ratio in data set [2] stood at 473000. Also, the EC50 in data set [5] came out at 8.7 nM.

`COc1ccccc1CC(NC(=O)CCCC[C@]12CCC(C)(C)C[C@H]1C1=CC[C@@H]3[C@@]4(C)CC[C@H](O)C(C)(C)[C@@H]4CC[C@@]3(C)[C@]1(C)CC2)C(=O)O` (mixture of isomers) had an IC50 in data set [1] of 4560 nM.

In data set [1], `CC1(C)CC[C@]2(C(=O)O)CC[C@]3(C)C(=CC[C@@H]4[C@@]5(C)CC[C@H](OCc6ccccc6)C(C)(C)[C@@H]5CC[C@]43C)[C@@H]2C1` gave an IC50 of 700 nM.

`Cc1nc2ccccc2c(-c2cc(F)c3c(c2C)CCCO3)c1[C@H](OC(C)(C)C)C(=O)O`: the IC50 in data set [1] was determined as 19 nM.

Take `O=C(/C=C/c1ccccc1O)c1ccc(O)c(O)c1`: the 50% inhibitory concentration (IC50) in data set [1] came to 3670 nM. This IC50 is about 190-fold higher than that of the compound before.

Compound `O=C(/C=C/c1ccccc1O)c1c(O)cc(O)cc1O` had an IC50 in data set [1] of 6210 nM.

As to `O=C(/C=C/c1cc(F)cc(F)c1)c1ccc(O)cc1O`, inhibition in data set [1] was half-maximal at 1750 nM (IC50).

For `CC1(C)CC[C@]2(CCCCC(=O)NC(Cc3ccccc3Cl)C(=O)O)CC[C@]3(C)C(=CC[C@@H]4[C@@]5(C)CC[C@H](O)C(C)(C)[C@@H]5CC[C@]43C)[C@@H]2C1` (mixture of isomers), the selectivity ratio in data set [2] stood at 2.12. The same compound registered a CC50 at 72 h in data set [4] of 77500 nM. In data set [8], the inhibition result is “Active”. Besides, in data set [5], the EC50 is 36600 nM. In data set [1], this compound yielded an IC50 of 650 nM.

In turn, `O=C(/C=C/c1ccc(O)c(O)c1)O[C@H](Cc1ccc(O)c(O)c1)C(=O)O` [ROSMARINIC ACID] yielded a half-maximal inhibitory concentration (IC50) in data set [1] of 550 nM. In other words, the sub-micromolar range.
